Measurements reported in US7223400B2, “Method to prepare compositions comprising yeast treated with electromagnetic energy” (Ultra Biotech Limited, priority 2003, dated 2007).

Tests used:
[1] = test system: stomach cancer cell line S784; assay: TA2 mouse model of stomach cancer, growth of tumors; type: in vivo, TA2 mice; details: 31st day from tumor inoculation; 30 consecutive days; AY/NY 0.3 ml oral once per day, ADM 10^5 units per kg i.v. per day
From the text: The growth of tumors in the mice was studied.
Numerous animal studies have reported the use of murine models in the study of treating stomach cancer. Methylcholanthrene (MC) is a well-known effective trigger of stomach cancer in mice. Accordingly, this experiment used MC in designing TA2 mouse model of human stomach cancer. Detailed description of the use of methylcholanthrene to induce stomach cancer can be found in Wang X. H. et al., 1984, Chin Med J (Engl) 97(3):215–22, which is incorporated herein by reference in its entirety.
The animals used for the experiments were TA2 mice, 6 to 8 weeks old (obtainable from the Second Military Medical University, Shanghai, China). Both male and females with an average weight of about 18 to 20 gram were used. The stomach cancer cell line S784 (obtainable from MC-treated TA2 mouse provided by the Tianjian Medical University, China) in a suspension containing about 1.2×10^7 viable tumor cells (about 0.2 ml cell culture) was injected subcutaneously into the animals.
In group ADM, the mice were injected intravenously with 10^5 units of doxorubicin (adriamycin, ADM) per kg body weight per day.

[2] = test system: stomach cancer cells (cell line from a DMH-induced Wistar rat stomach cancer); assay: Wistar rat model of transplanted stomach cancer, survival time; type: in vivo, Wistar rats; details: for Number of live animals remaining in the groups after 21 days of treatment: 30 rats per group
Protocol: In group 2ADM, the rats were injected intravenously with 1.5×10^5 units of doxorubicin (adriamycin, ADM) per kg body weight per day.

[3] = test system: stomach cancer cells (cell line from a DMH-induced Wistar rat stomach cancer); assay: Wistar rat model of transplanted stomach cancer, growth of the tumor; type: in vivo, Wistar rats; details: 22nd day from tumor inoculation; 21 consecutive days; AY/NY 0.8 ml oral once per day, ADM 10^5 units per kg i.v. per day
From the text: The growth of the tumor in the rats was studied.
Numerous animal studies have reported the use of Wistar rats in the study of treating stomach cancer. 1,2-dimethylhydrazine (DMH) is a well-known effective trigger of stomach cancer in rats. Accordingly, this experiment used DMH in designing Wistar rat model of human stomach cancer. Detailed description of the use of 1,2-dimethylhydrazine to induce stomach cancer can be found in Watanabe H. et al., 1999, Jpn J Cancer Res. 90(11):1207–11, which is incorporated herein by reference in its entirety.
The animals used in the experiments were Wistar rats (obtainable from the Chinese Academy of Military Medical Sciences, Beijing, China). The stomach cancer cell line (obtainable from the First Military Medical University of China, Guangzhou, China) was generated in 1991 from a Wistar rat stomach cancer which was induced by subcutaneous injection of DMH. The rats were injected subcutaneously with 2.5×10^6 stomach cancer cells per animal.
In group AY, the rats received 0.8 ml of the biological composition once per day. In group NY, the rats received 0.8 ml of the untreated yeast cells once per day. In group ADM, the rats were injected intravenously with 10^5 units of doxorubicin (adriamycin, ADM) per kg body weight per day. In group CK1, the rats received 0.8 ml of physiological saline once per day. […]

[4] = test system: stomach cancer cell line S784; assay: Mouse model of stomach cancer, survival time; type: in vivo, TA2 mice; details: for Number of live animals remaining in the groups after 30 days of treatment: 30 mice per group
Protocol: In group 2ADM, the mice were injected intravenously with 1.5×10^5 units of doxorubicin (adriamycin, ADM) per kg body weight per day.

[5] = 1 month after cessation of treatment
[6] = 2 months after cessation of treatment
[7] = 3 months after cessation of treatment
[8] = 4 months after cessation of treatment
[9] = 5 months after cessation of treatment
[10] = 6 months after cessation of treatment
[11] = rats that survived, observed over 6 months, 1.2 ml oral or ADM 1.5×10^5 units per kg i.v. per day, 21 days
[12] = mice that survived, observed over 6 months, 0.5 ml oral or ADM 1.5×10^5 units per kg i.v. per day

Structure (SMILES): COc1cccc2c1C(=O)c1c(O)c3c(c(O)c1C2=O)C[C@@](O)(C(=O)CO)C[C@@H]3O[C@H]1C[C@H](N)[C@H](O)[C@H](C)O1 [ADM, doxorubicin]
- mean weight of mice and standard deviation [1]: 19.8 ± 0.8 g
- mean weight of stomach and standard deviation [1]: 621 ± 17 mg
- mean weight of tumor nodules and standard deviation [1]: 346 ± 36 mg
- Number of live animals remaining in the groups after 21 days of treatment ([2]; 0 month after cessation of treatment, 1.2 ml oral or ADM 1.5×10^5 units per kg i.v. per day): 30
- Number of live animals remaining in the groups after 21 days of treatment [2, 5]: 30
- survival of rats bearing stomach cancer cells ([2]; 1.2 ml oral per day or ADM 1.5×10^5 units per kg per day, from injection of tumor cells): all died after four months
- Number of live animals remaining in the groups after 21 days of treatment [2, 6]: 30
- Number of live animals remaining in the groups after 21 days of treatment [2, 7]: 22
- Number of live animals remaining in the groups after 21 days of treatment [2, 8]: 17
- Number of live animals remaining in the groups after 21 days of treatment [2, 9]: 13
- Number of live animals remaining in the groups after 21 days of treatment [2, 10]: 0
- mean weight of rats and standard deviation [2, 11]: all animals dead
- mean weight of tumor nodules and standard deviation [2, 11]: all animals dead
- mean weight of rats and standard deviation [3]: 181.8 ± 12.8 g
- mean weight of tumor nodules and standard deviation [3]: 446.4 ± 13.6 mg
- Number of live animals remaining in the groups after 30 days of treatment ([4]; 0 month after cessation of treatment, 0.5 ml oral or ADM 1.5×10^5 units per kg i.v. per day): 30
- survival of mice bearing stomach cancer cells ([4]; 0.5 ml oral per day or ADM 1.5×10^5 units per kg per day, from injection of tumor cells): all died after four months
- Number of live animals remaining in the groups after 30 days of treatment [4, 5]: 30
- Number of live animals remaining in the groups after 30 days of treatment [4, 6]: 27
- Number of live animals remaining in the groups after 30 days of treatment [4, 7]: 16
- Number of live animals remaining in the groups after 30 days of treatment [4, 8]: 7
- Number of live animals remaining in the groups after 30 days of treatment [4, 9]: 0
- Number of live animals remaining in the groups after 30 days of treatment [4, 10]: 0
- mean weight of mice and standard deviation [4, 12]: all animals dead
- mean weight of stomach and standard deviation [4, 12]: all animals dead
- mean weight of tumor nodules and standard deviation [4, 12]: all animals dead
